This is an account of results in PubChem BioAssay (NCI).

Test in all cases: inhibition of tumour cell growth, NCI panel, 48 h
The test system of experiment [1] is A498 renal.
Experiment [2] relates to A549 NSCLC.
Experiment [3] relates to ACHN renal.
The subject of experiment [4] is CAKI-1 renal.
Experiment [5] has as its system CCRF-CEM leukemia.
The test system of experiment [6] is HCC-2998 colon.
Experiment [7] concerns HS 578T breast.
The test system of experiment [8] is HT29 colon.
Experiment [9] has as its system K-562 leukemia.
Experiment [10] relates to MDA-MB-435.
In experiment [11] the test system is MDA-N.
Experiment [12] relates to NCI-H226 lung.
The subject of experiment [13] is NCI-H23 lung.
Experiment [14] deals with OVCAR-8 ovarian.
For experiment [15], the system named is PC-3 prostate.
Experiment [16] concerns SK-MEL-2 melanoma.
In experiment [17] the test system is SN12C renal.
The subject of experiment [18] is SNB-19 CNS.
Experiment [19] deals with SNB-75 CNS.
Experiment [20] has as its system SR leukemia.

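Each compound was tested at five concentrations against cells in 96-well plates for 48 hours. TGI marks complete inhibition of growth.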

Regarding `CCC(C)C(=O)OC1CC2(C)C(c3ccoc3)OC(=O)CC23OC2(C)OC34C(OC(=O)C(C)C)C3(O)C(OC(=O)C5(C)OC5C)C5(C)CC3(O)C(C)(C5CC(=O)OC)C14O2` (stereo not given), the TGI in experiment [1] was over 100 µM; in experiment [2], over 100 µM; in experiment [3], over 100 µM; in experiment [4], over 100 µM; in experiment [5] it was 74.1 µM; in [6], over 100 µM. Besides, the TGI in experiment [7], in experiment [8], in experiment [9], in experiment [10], in experiment [11] and in experiment [12] was over 100 µM in each case. For the same molecule, the TGI in experiment [13], in [14], in experiment [15], in [16], in experiment [17] and in experiment [18] was over 100 µM each time. Also, the TGI in experiment [19] is over 100 µM; in experiment [20] it was 95 µM.
On to `O=C(Nc1ccccc1C(=O)NCCCO)/C(=C/c1ccccc1O)NC(=O)c1ccccc1`, for which the TGI in [1] was over 100 µM; in [2] it was over 100 µM; in experiment [3], 97.4 µM; in [4], over 100 µM; in experiment [5] it was over 100 µM; in experiment [6] it was over 100 µM. The TGI in [7] is 77.6 µM; in [8], over 100 µM; in experiment [9], over 100 µM; in experiment [10] it was over 100 µM; in experiment [11], over 100 µM; in experiment [12], over 100 µM. The TGI in experiment [13] was over 94.5 µM; in [14], over 64.6 µM; in experiment [15], over 100 µM; in experiment [16], over 100 µM; in experiment [17], over 100 µM; in experiment [18], 40.8 µM. The TGI in [19] was over 83.9 µM; in experiment [20], over 100 µM.
On to `CC1(C)C=C(S(=O)(=O)c2ccccc2)Oc2ccccc2O1`, for which the TGI in [1] was over 100 µM; in [2], over 100 µM; in experiment [3], over 100 µM; in experiment [4] it was over 100 µM; in [5] it was over 100 µM; in [6], 68.5 µM. For the same molecule, the TGI in experiment [7] was over 100 µM; in experiment [8], over 100 µM; in experiment [9] it was over 100 µM; in experiment [10] it was 48 µM; in experiment [11], over 100 µM; in experiment [12] it was over 100 µM. The TGI in experiment [13], in experiment [14], in experiment [15], in experiment [16], in [17] and in experiment [18] was over 100 µM in each case. Further, the TGI is 82.3 µM in experiment [19] and over 100 µM in experiment [20].
With `CCNC(=O)C1CCCN1C(=O)C(CCCN=C(N)N)NC(=O)C(CC(C)C)NC(=O)C(Cc1c[nH]c2ccccc12)NC(=O)C(Cc1ccc(O)cc1)NC(=O)C(CO)NC(=O)C(Cc1c[nH]c2ccccc12)NC(=O)C(Cc1cnc[nH]1)NC(=O)C1CCC(=O)N1` (stereo not given), the TGI in experiment [1], in experiment [2], in [3], in experiment [4], in experiment [5] and in experiment [6] was over 100 µM each time. Further, the TGI in [7], in [8], in experiment [9], in [10], in experiment [11] and in [12] was over 100 µM in each case. Also, the TGI in experiment [13], in experiment [14], in experiment [15], in experiment [16], in experiment [17] and in experiment [18] was over 100 µM in each case. Moreover, the TGI in [19] and in [20] was over 100 µM in each case.
On to `Cc1nn(-c2cc(Cl)ccc2[N+](=O)[O-])c(C)c1Cl`, for which the TGI in [1], in experiment [2], in [3], in experiment [4], in experiment [5] and in [6] was over 100 µM throughout. Further, the TGI in experiment [7], in [8], in experiment [9], in [10], in experiment [11] and in experiment [12] was over 100 µM in each case. Besides, the TGI in [13], in experiment [14], in [15], in [16], in [17] and in [18] was over 100 µM throughout. The TGI in experiment [19] and in experiment [20] was over 100 µM each time.
For `O=C1CSC(c2cccs2)N1c1nc2cc3sc(N4C(=O)CSC4c4cccs4)nc3cc2s1` (stereo not given), the TGI in experiment [1], in experiment [2], in experiment [3], in experiment [4], in [5] and in experiment [6] was over 50 µM throughout. Further, the TGI in experiment [7] is over 50 µM; in [8], over 50 µM; in [9] it was over 50 µM; in experiment [10] it was over 50 µM; in experiment [11] it was over 50 µM; in experiment [12], 26.8 µM. Besides, the TGI in experiment [13], in experiment [14], in experiment [15], in experiment [16], in experiment [17] and in experiment [18] was over 50 µM in each case. For the same molecule, the TGI in experiment [19] and in [20] was over 50 µM each time.
Consider `Brc1ccc2c(-c3csc(-c4c[nH]c5cc(Br)ccc45)n3)c[nH]c2c1`, for which the TGI in experiment [1] was over 83.5 µM; in experiment [2] it was over 50.7 µM; in [3], over 100 µM; in [4] it was over 100 µM; in experiment [5], over 64.1 µM; in experiment [6] it was over 100 µM. Further, the TGI in [7] was 87.1 µM; in experiment [8] it was 29.2 µM; in [9], over 43.8 µM; in experiment [10], 17.5 µM; in experiment [11] it was 13.4 µM; in experiment [12], 99.7 µM. The TGI is 53.2 µM in experiment [13]; over 57.1 µM in experiment [14]; over 79.5 µM in experiment [15]; over 100 µM in [16]; over 100 µM in experiment [17]; 58.2 µM in [18]. The TGI in experiment [19] is 66.1 µM; in experiment [20], over 41 µM.
As to `C=C1C(=O)O[C@@]23C1CC[C@@H](C)C2CC[C@@]1(C)OC31` (stereo not given in full), the TGI was 59.1 µM in experiment [1]; over 100 µM in [2]; 27.1 µM in experiment [3]; 18.4 µM in [4]; 15.9 µM in [5]; 16.2 µM in experiment [6]. Moreover, the TGI amounted to 46.5 µM in experiment [7]; 25.6 µM in experiment [8]; 66.1 µM in experiment [9]; 23 µM in experiment [10]; 23.1 µM in experiment [11]; 47.9 µM in experiment [12]. The TGI in [13] came out at 20.6 µM; in experiment [14], 56.5 µM; in experiment [15], 18.7 µM; in experiment [16], 23.9 µM; in [17] it was 21.5 µM; in experiment [18] it was 47.4 µM. The results for the TGI in experiment [19] and in [20] were 8.52 µM and 33.2 µM, respectively.
As to `COc1cc(I)c2c3c1OC1C34CCN(C)C(C2)C4=CC(I)C1(OC)OC` (stereo not given), the TGI in [1] is 86.4 µM; in [2], over 100 µM; in experiment [3], 98.3 µM; in [4], 93.8 µM; in experiment [5], 26.8 µM; in [6] it was 28.9 µM. Besides, the TGI in [7] is over 100 µM; in experiment [8] it was 83.6 µM; in [9], 61.8 µM; in [10] it was 33.8 µM; in experiment [11] it was 48 µM; in [12], 70.5 µM. Moreover, the TGI stood at 54.7 µM in experiment [13]; 53 µM in [14]; 82.1 µM in [15]; 32.9 µM in experiment [16]; 31.9 µM in experiment [17]; 71.9 µM in experiment [18]. The TGI in experiment [19] is 31.2 µM; in [20], 40.9 µM.
As to `c1ccc2c3c(c(N4CCOCC4)nc2c1)CCCC3`, the TGI in [1] is 81.6 µM; in [2] it was over 100 µM; in experiment [3], over 100 µM; in experiment [4] it was over 100 µM; in experiment [5] it was over 100 µM; in experiment [6] it was over 100 µM. Moreover, the TGI is over 100 µM in experiment [7]; over 100 µM in experiment [8]; over 100 µM in experiment [9]; over 100 µM in [10]; over 100 µM in experiment [11]; 68.1 µM in [12]. The TGI in [13], in experiment [14], in [15], in experiment [16], in [17] and in experiment [18] was over 100 µM in each case. Also, the TGI is 83.1 µM in [19] and over 100 µM in experiment [20].
